Data from patent publication US11203576B2, “Aurora kinase and Janus kinase inhibitors for prevention of graft versus host disease” (H. LEE MOFFITT CANCER CENTER AND RESEARCH INSTITUTE, INC., priority 2016, dated 2021).
Read-outs that look alike come from different tables or passages of the source.

What was measured:
CD39 on iTreg = experiment: ATP hydrolysis assay; assay type: cell-based, human; conditions: ARL67156 125 μM
Description: iTregs generated in the presence of AJI-241 (750 nM) or DMSO were plated in V-bottom 96 well plates in serum free media at a concentration of 75,000 cells per 100 μL. ARL67156 (125 μM) was added or not as indicated. A fixed dose of ATP (50 μM) was added to the cells and incubated at 37° C. for 45 minutes. ATP consumption was measured by a luminescence assay per the manufacturer's instructions (Promega, CellTiter-Glo Luminescent Cell Viability Assay) and read by a spectrofluorimeter. Percent consumption was calculated as (luminescence of test supernatant/luminescence of 50 μM ATP cell-free control supernatant)×100.

[1] = test system: T-cells allostimulated by dendritic cells (DC); experiment: Allogeneic mixed leukocyte reaction (alloMLR), T-cell proliferation; assay type: cell-based, human
Description: Bulk donor T-cells were allostimulated with allogeneic DCs (DC:T-cell ratio of 1:30) as previously described (OneBlood, Tampa, Fla.)(15, 16, 20). […] As indicated, alloMLRs consisting of Treg depleted, naïve CD4^+ T-cells (Miltenyi Biotec Inc, San Diego, Calif.) were treated with a combination of ARL67156 (CD39 inhibitor, 125 μM, Sigma), AJI, or DMSO on day 0 to study the role of CD39 and ATP in this system. T-cell proliferation was measured on day 5 by a colorimetric assay (CellTiter 96 Aqueous One Solution Cell Proliferation Assay [MTS]; or CellTiter Blue, Promega, Madison, Wis.). Absorbance/optical density (OD) was analyzed at 490 nm or 590 nm, respectively. Proliferation (%)=(OD treated alloMLR−OD T-cells alone)/(OD DMSO alloMLR−OD T-cells alone)×100.

TH17 = experiment: IL-17 ELISPOT of DC-stimulated CD4+ T cells; assay type: cell-based, human; conditions: DC-stimulated purified CD4+ T cells
Description: Naïve CD4^+ T cells were purified and allostimulated (DC/T cell ratio of 1:30) as reported (B. C. Betts et al., CD4^+ T cell STAT3 phosphorylation precedes acute GVHD, and subsequent TH17 tissue invasion correlates with GVHD severity and therapeutic response. J. Leukocyte Biol. (2015)). Alisertib ([…]), TG101348 (350 nM), both alisertib and TG101348, AJI-214 (750 nM), AJI-100 (750 nM), or DMSO control was added once on day 0. Medium was supplemented with IL-6 (1×10^5 IU/mL), TGF-β (4 ng/mL; R&D Systems), and anti-IFN-γ monoclonal antibody ([…]; eBioscience) to polarize TH17. After 5 days, the T cells were harvested, washed, and then plated at 35,000 cells per well in an IL-17 ELISPOT plate (R&DSystems). The CD4^+ T cells were stimulated with PMA/ionomycin, and the ELISPOT assay was performed according to the manufacturer's instructions.

GVHD = conditions: mouse, in vivo; cited from earlier work
iTreg = iTreg differentiation and potency; assay type: cell-based, human; conditions: for iTreg:allo Tconv ratio: 5-day MLRs; for iTreg:allo Tconv ratio / iTreg differentiation / absolute numbers of iTregs: vs DMSO; for iTreg differentiation / absolute numbers of iTregs: Treg-depleted naïve CD4+ T-cells, allogeneic DCs, 5 days; for suppressive capacity of iTregs generated in presence of inhibitor: standard suppression assay, no additional inhibitor added
Description: On day 5, iTregs were isolated and washed to minimize drug carry-over as reported. The T cells were harvested and surface-stained on day 5 for CD3, CD4, CD25, and CD127, followed by fixation and permeabilization (eBioscience) and Foxp3 staining. The absolute number of iTreg was calculated by flow cytometry using CountBright beads (Life Technologies). The purified iTregs were titrated against alloMLRs consisting of responder CD4+CD25− T cells (5×10^4) from the iTregs donor and fresh allogeneic DCs (1.6×10^3) to determine suppressive potency. T cell proliferation was determined by pulsing cells with [^3H]thymidine ([…]). Surface expression of CD39 and LAG3 was evaluated on the iTregs. iTregs production of CTLA4 was assessed by intracellular staining after a 5-hour treatment of PMA/ionomycin, with GolgiStop added during the last 4 hours of incubation. iTregs synthesis of IL-10 and TGF-β (Quansys Biosciences) was quantified from supernatants using multiplex cytokine assays after PMA/ionomycin stimulation.

[2] = test system: xenogeneic GVHD (NSG mice transplanted with human PBMCs); experiment: Xenogeneic GVHD model; assay type: in vivo; conditions: alisertib 30 mg/kg daily, TG101348 45 mg/kg twice a day, oral gavage day 0 to +14
From the text: After transplantation and treatment with either AJI-100 or vehicle control, human T cells were isolated from recipient mouse spleens at day +14, stained for pH3Ser^10 or pSTAT3 (+IL-6 stimulation), and analyzed as described.
NOD scid gamma (NSG) mice (male or female, 6-24 weeks old) were purchased from Jackson Laboratory (Bar Harbor, Me., USA) and raised per an IACUC-approved protocol in adherence to the NIH Guide for the Care and Use of Laboratory Animals. Mice received either (i) alisertib (30 mg/kg daily), TG101348 (45 mg/kg twice a day), a combination of alisertib and TG101348, or vehicle (methylcellulose) by oral gavage or (ii) AJI-100 (50 mg/kg daily) or vehicle (50% polyethylene glycol, 15% 2-hydroxypropyl-b-cyclodextrin, and 10% DMSO in sterile saline) ip from day 0 to day +14.
Mice were monitored for GVHD clinical scores (K. R. Cooke et al., An experimental model of idiopathic pneumonia syndrome after bone marrow transplantation: I. The roles of minor H antigens and endotoxin. Blood 88, 3230 (1996)), weight, and premoribund status. As indicated, mice were euthanized on day +14 to study recipient spleen Tconv, Tregs, TH1, TH17, B cells, and T-cell signal transduction. Human CD4^+ Treg (CD25+, CD127^−, Foxp3^+), Tconv(CD25^+, CD127^+), TH1, TH17, and CD19^+ B cells residing in recipient spleens were quantified by flow cytometry. T-cell pH3 ser10 and PSTAT3 were evaluated by flow cytometry. IL-17 ELISPOTs were performed using isolated human T cells from recipient mouse spleen as described above. Tissue samples were prepared, stained (Ventana Medical Systems, Tucson, Ariz.), and imaged (Vista, Calif., USA) to identify human T-cells as previously described. All vertebrate animal work was IACUC-approved.

[3] = test system: H3 Ser10 (target of Aurora); experiment: H3 Ser10 phosphorylation in DC-allostimulated T-cells (flow cytometry); assay type: cell-based, human; conditions: 5-day allogeneic DC stimulation; AJI 750 nM, alisertib 1.75 μM, TG101348 350 nM
Description: After 5 days, T cells were then harvested and directly fixed (Cytofix, BD Biosciences) for 10 min at 37° C. After washing with phosphate-buffered saline, the T cells were permeabilized with icecold methanol (90%, v/v) for at least 20 min at -20° C. The cells were stained for expression of CD3 and pH[…].

RORgammaT = RORgammaT expression by RT-PCR; assay type: cell-based, human; conditions: TH17-polarizing medium, 5 days, vs DMSO
pSTAT5 (Y694) = experiment: IL-2-induced STAT5 phosphorylation in T-cells; assay type: cell-based, human; conditions: vs DMSO or unstimulated controls
Description: As indicated, T cells were serum-starved in RPMI treated with DMSO diluent control, alisertib, TG101348, a combination of both inhibitors, AJI-214, or AJI-100 for 4 hours. IL-6-induced pSTAT3 or IL-2-induced pSTAT5 (Y694) was measured by flow cytometry.

Bioavailability = conditions: in vivo
STAT3 (target of JAK2) = experiment: STAT3 phosphorylation in T-cells (flow cytometry); assay type: cell-based, human; conditions: in vitro, DC- or IL-6-stimulated, vs DMSO
Description: IL-6-induced pSTAT3 or IL-2-induced pSTAT5 (Y694) was measured by flow cytometry.

CCN(CC)c1ncnc2c1ncn2[C@@H]1O[C@H](COP(=O)(O)OP(=O)(O)C(Br)(Br)P(=O)(O)O)[C@@H](O)[C@H]1O [ARL67156]
hydrolysis of ATP by AJI-treated iTregs on CD39 blockade (CD39 on iTreg): significantly impaired
T-cell inhibition by bisanilinopyrimidine (I)/AJI-214 on CD39 blockade ([1]; natural Treg-depleted CD4+ alloMLR, ARL67156 added): significantly weakened

COc1cc(Nc2ncc3c(n2)-c2ccc(Cl)cc2C(c2c(F)cccc2OC)=NC3)ccc1C(=O)O [alisertib]
TH17 (IL-17 ELISPOT) (TH17): no effect
onset of GVHD in mice (GVHD): significantly delayed the onset of GVHD
iTreg:allo Tconv ratio (iTreg): incrementally larger Treg:allo Tconv ratios
iTreg differentiation / absolute numbers of iTregs (iTreg): less absolute numbers of iTregs and allo Tconv
suppressive capacity of iTregs generated in presence of inhibitor (iTreg): superior suppressive capacity
median survival [2]: 41 days
phosphorylation of histone 3 serine 10 (pH3 Ser10) in T-cells [3]: only inhibited pH3Ser^10
RORgammaT expression in alloresponder CD4+ T-cells (RORgammaT): no effect
inhibition at 0.625 µM ([1]; Homo sapiens, T-cell, alisertib 625 nM, read-out: inhibition of proliferative response of T-cells in alloMLRs): 32.5%
IC50 ([1]; Homo sapiens, T-cell, alisertib alone (Study 2 text), read-out: median inhibitory concentration (IC50), T cells in alloMLRs): 10 µM
IC50 ([1]; Homo sapiens, T-cell, alisertib alone, read-out: IC50, proliferative response of T-cells in alloMLRs): 10 µM
IC50 ([1]; Homo sapiens, TG101348 and alisertib added together at fixed ratio 1:5, read-out: IC50 of the combination, alisertib concentration): 1.75 µM
IL-2-induced STAT5 activation/phosphorylation in T-cells (pSTAT5 (Y694)): remained intact

NC(=O)c1ccc(Nc2ncc(F)c(Nc3ccccc3Cl)n2)cc1 [bisanilinopyrimidine (I)]
bioavailability (Bioavailability): limited bioavailability

Cc1cnc(Nc2ccc(OCCN3CCCC3)cc2)nc1Nc1cccc(S(=O)(=O)NC(C)(C)C)c1 [TG101348]
iTreg:allo Tconv ratio (iTreg): incrementally larger Treg:allo Tconv ratios
iTreg differentiation / absolute numbers of iTregs (iTreg): less absolute numbers of iTregs and allo Tconv
suppressive capacity of iTregs generated in presence of inhibitor (iTreg): improved iTreg function compared with DMSO
STAT3 (pSTAT3 Y705) phosphorylation in T-cells (STAT3 (target of JAK2)): only inhibited pSTAT3
RORgammaT expression in alloresponder CD4+ T-cells (RORgammaT): significantly decreases
IC50 ([1]; Homo sapiens, TG101348 and alisertib added together at fixed ratio 1:5, read-out: IC50 of the combination, TG101348 concentration): 0.35 µM
concentrations reducing alloreactive T-cell proliferation ([1]; alloMLR): ≥ 350 nM
IL-2-induced STAT5 activation/phosphorylation in T-cells (pSTAT5 (Y694)): remained intact
